According to patent US6063926A, “Substituted oximes as neurokinin antagonists” (Schering Corporation, priority 1998, dated 2000):
Where two headings read alike, the source gives them in different places.

Tests used:
NK2 receptor = biological target: T1, NK2 receptor (Homo sapiens, UniProt P21452); test: neurokinin receptor binding assay, NK2 (Ki)
T1 sequence (P21452 1-398): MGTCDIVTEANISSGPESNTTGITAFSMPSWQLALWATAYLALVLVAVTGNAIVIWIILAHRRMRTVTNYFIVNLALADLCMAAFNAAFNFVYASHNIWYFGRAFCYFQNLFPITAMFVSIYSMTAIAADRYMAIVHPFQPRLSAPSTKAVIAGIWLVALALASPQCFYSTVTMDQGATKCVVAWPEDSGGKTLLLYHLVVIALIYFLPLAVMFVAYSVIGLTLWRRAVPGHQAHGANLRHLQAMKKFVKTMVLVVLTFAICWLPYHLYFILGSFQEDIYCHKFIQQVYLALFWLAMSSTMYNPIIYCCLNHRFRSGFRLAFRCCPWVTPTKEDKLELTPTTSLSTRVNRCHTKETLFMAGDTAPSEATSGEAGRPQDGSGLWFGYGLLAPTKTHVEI
Excerpt: (§1) The in vitro and in vivo activity of the compounds of formula I can be determined by various procedures known in the art, such as a test for their ability to inhibit the activity of the NK1 agonist Substance P, an isolated hamster trachea NK2 assay, a test of the effect of NK1 antagonists on Substance P-induced airway microvascular leakage, measurement of NK2 activity in vivo in guinea pigs, measurement of bronchoconstriction due to NKA, and neurokinin receptor binding assay(s). Typical procedures are described in WO96/34857, published Nov. 7, 1996. NK3 activity is determined by following a procedure similar to that described in the literature, e.g., Molecular Pharmacol., 48 (1995), p. 711-716.
(§2) % Inhibition is the difference between the percent of maximum specific binding (MSB) and 100%. The percent of MSB is defined by the following equation, wherein "dpm" is disintegrations per minute: [formula]
(§3) Using the test procedures described above, the following 35 data (Ki) were obtained for exemplified compounds: […]

NK1 receptor = NK1 receptor (Homo sapiens, UniProt P25103); test: neurokinin receptor binding assay, NK1 (Ki)
Excerpt: as §1, §2, §3

Chain of NK1 receptor (P25103 whole entry): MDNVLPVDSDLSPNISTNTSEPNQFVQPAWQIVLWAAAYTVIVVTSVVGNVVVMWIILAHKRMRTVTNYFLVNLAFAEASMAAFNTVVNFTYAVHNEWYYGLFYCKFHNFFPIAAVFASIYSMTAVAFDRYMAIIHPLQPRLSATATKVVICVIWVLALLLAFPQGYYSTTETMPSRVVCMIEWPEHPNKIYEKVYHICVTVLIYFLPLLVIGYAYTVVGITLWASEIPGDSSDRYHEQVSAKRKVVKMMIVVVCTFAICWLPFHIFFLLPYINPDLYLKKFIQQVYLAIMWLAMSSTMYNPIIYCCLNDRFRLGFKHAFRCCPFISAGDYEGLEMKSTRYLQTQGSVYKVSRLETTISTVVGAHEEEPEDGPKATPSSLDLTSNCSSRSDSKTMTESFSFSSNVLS

| SMILES | Ki (NK2 receptor; read-out: Ki (NK2)) [nM] | Ki (NK1 receptor; read-out: Ki (NK1)) [nM] | Ki (NK2 receptor; compound of Example 11, amide disclosed in U.S. Pat. No. 5,696,267, read-out: Ki for the NK2 receptor (unit inferred)) [nM] | Ki (NK1 receptor; compound of Example 11, amide disclosed in U.S. Pat. No. 5,696,267, read-out: Ki for the NK1 receptor (unit inferred)) [nM] |
| --- | --- | --- | --- | --- |
| CNC(=O)CC1CCCN(C2CCN(CCC(C(CNC(=O)c3cc(Cl)cc(Cl)c3)=NOC)c3ccc(Cl)c(Cl)c3)CC2)C1=O (stereo not shown) [Example 29B] | 1.3 | 5.2 |  |  |
| CON=C(N)CON=C(CN(C)C(=O)c1cc(C)cc(C)c1)C(CCN1CCC(N2CCCCC2=O)CC1)c1ccc(Cl)c(Cl)c1 (stereo not shown) [Example 18M] | 0.4 | 0.2 |  |  |
| CNC(=O)CC1CCCN(C2CCN(CCC(C(CN(C)C(=O)c3cc(Cl)cc(Cl)c3)=NO)c3ccc(Cl)c(Cl)c3)CC2)C1=O (stereo not shown) [Example 15A] | 0.7 | 0.2 |  |  |
| CON=C(CN(C)C(=O)c1cc(Cl)cc(Cl)c1)C(CCN1CCC(N2CCCC(CC(=O)N3CCOCC3)C2=O)CC1)c1ccc(Cl)c(Cl)c1 (stereo not shown) [Example 12K] | 0.5 | 0.9 |  |  |
| CON=C(CN(C)C(=O)c1cc(Cl)cc(Cl)c1)[C@H](CCN1CCC(N2CCC[C@H](CC(=O)N(C)C)C2=O)CC1)c1ccc(Cl)c(Cl)c1 [Example 13A] | 0.2 | 0.8 |  |  |
| CNC(=O)CC1CCCN(C2CCN(CCC(C(CN(C)C(=O)c3cc(Cl)cc(Cl)c3)=NOCC(=O)NCS(=O)(=O)O)c3ccc(Cl)c(Cl)c3)CC2)C1=O (stereo not shown) [Example 15J] | 4.3 | 0.7 |  |  |
| CN(C)C(=O)CC1CCCN(C2CCN(CCC(C(CN(C)C(=O)c3cc(Cl)cc(Cl)c3)=NO)c3ccc(Cl)c(Cl)c3)CC2)C1=O (stereo not shown) [Example 14B] | 0.8 | 0.3 |  |  |
| CON=C(N)CON=C(CN(C)C(=O)c1cc(Cl)cc(Cl)c1)C(CCN1CCC(N2CCCC(CC(=O)N(C)C)C2=O)CC1)c1ccc(Cl)c(Cl)c1 (stereo not shown) [Example 14E] | 0.4 | 0.2 |  |  |
| Cc1cc(C)cc(C(=O)N(C)CC(=NOCC(N)=NO)C(CCN2CCC(N3CCCC(CC(=O)N(C)C)C3=O)CC2)c2ccc(Cl)c(Cl)c2)c1 (stereo not shown) [Example 19C] | 0.2 | 0.2 |  |  |
| CCON=C(CN(C)C(=O)c1cc(Cl)cc(Cl)c1)C(CCN1CCC(N2CCCC(CC(=O)NC)C2=O)CC1)c1ccc(Cl)c(Cl)c1 (stereo not shown) [Example 15L] | 1.4 | 1 |  |  |
| CN(C)C(=O)CC1CCCN(C2CCN(CCC(C(CN(C)C(=O)c3cc(Cl)cc(Cl)c3)=NOCC(N)=NO)c3ccc(Cl)c(Cl)c3)CC2)C1=O (stereo not shown) [Example 14D] | 0.2 | 0.3 |  |  |
| CON=C(CN(C)C(=O)c1cc(Cl)cc(Cl)c1)[C@H](CCN1CCC(N2CCC[C@H](CC(=O)OC)C2=O)CC1)c1ccc(Cl)c(Cl)c1 [Example 13F] | 0.3 | 0.2 |  |  |
| CON=C(CN(C)C(=O)c1cc(Cl)cc(Cl)c1)[C@H](CCN1CCC(N2CCCCC2=O)CC1)c1ccc(Cl)c(Cl)c1 [Example 13D] | 0.7 | 1.1 |  |  |
| CON=C(CNC(=O)c1cc(Cl)cc(Cl)c1)C(CCN1CCC(N2CCC[C@H](CC(N)=O)C2=O)CC1)c1ccc(Cl)c(Cl)c1 (stereo partly shown) [Example 29C] | 0.7 | 2.6 |  |  |
| Cc1cc(C)cc(C(=O)N(C)CC(=NOCC(N)=NO)C(CCN2CCC(N3CCCCC3=O)CC2)c2ccc(Cl)c(Cl)c2)c1 (stereo not shown) [Example 18E] | 0.4 | 0.4 |  |  |
| CNC(=O)CC1CCCN(C2CCN(CCC(C(CN(C)C(=O)c3cc(Cl)cc(Cl)c3)=NOCC(=O)NCC#N)c3ccc(Cl)c(Cl)c3)CC2)C1=O (stereo not shown) [Example 15I] | 1 | 0.8 |  |  |
| CNC(=O)CC1CCCN(C2CCN(CCC(C(CN(C)C(=O)c3cc(Cl)cc(Cl)c3)=NOCCCS(=O)(=O)O)c3ccc(Cl)c(Cl)c3)CC2)C1=O (stereo not shown) [Example 15H] | 0.4 | 0.2 |  |  |
| CN(CC(=NOCC(N)=NO)C(CCN1CCC(N2CCCCC2=O)CC1)c1ccc(Cl)c(Cl)c1)C(=O)c1cc(Cl)cc(Cl)c1 (stereo not shown) [Example 17E] | 0.7 | 0.7 |  |  |
| CON=C(CN(C)C(=O)c1cc(C)cc(Cl)c1)C(CCN1CCC(N2CCCCC2=O)CC1)c1ccc(Cl)c(Cl)c1 (stereo not shown) [Example 26] | 1.3 | 1 |  |  |

| SMILES | Ki (NK2 receptor; read-out: Ki (NK2)) [nM] | Ki (NK1 receptor; read-out: Ki (NK1)) [nM] | Ki (NK2 receptor; compound of Example 11, amide disclosed in U.S. Pat. No. 5,696,267, read-out: Ki for the NK2 receptor (unit inferred)) [nM] | Ki (NK1 receptor; compound of Example 11, amide disclosed in U.S. Pat. No. 5,696,267, read-out: Ki for the NK1 receptor (unit inferred)) [nM] |
| --- | --- | --- | --- | --- |
| CN(CC(=NOCF)C(CCN1CCC(N2CCCCC2=O)CC1)c1ccc(Cl)c(Cl)c1)C(=O)c1cc(Cl)cc(Cl)c1 (stereo not shown) [Example 17S] | 0.8 | 0.8 |  |  |
| COc1cc(C(=O)N(C)CC(=NOCC(N)=NO)C(CCN2CCC(N3CCCCC3=O)CC2)c2ccc(Cl)c(Cl)c2)cc(OC)c1C (stereo not shown) [Example 21B] | 0.5 | 6 |  |  |
| CNC(=O)CC1CCCN(C2CCN(CCC(C(CN(C)C(=O)c3cc(Cl)cc(Cl)c3)=NOCF)c3ccc(Cl)c(Cl)c3)CC2)C1=O (stereo not shown) [Example 15K] | 0.2 | 0.5 |  |  |
| CON=C(CN(C)C(=O)c1cc(Cl)cc(Cl)c1)C(CCN1CCC(N2CCCC(CC(=O)N3CCC(OC)CC3)C2=O)CC1)c1ccc(Cl)c(Cl)c1 (stereo not shown) [Example 25] | 0.7 | 0.9 |  |  |
| CON=C(N)CON=C(CN(C)C(=O)c1cc(OC)c(OC)c(OC)c1)C(CCN1CCC(O)(c2ccccc2)CC1)c1ccc(Cl)c(Cl)c1 (stereo not shown) [Example 37] | 0.7 | 0.7 |  |  |
| CNC(=O)CON=C(CN(C)C(=O)c1cc(Cl)cc(Cl)c1)C(CCN1CCC(N2CCCC(CC(=O)NC)C2=O)CC1)c1ccc(Cl)c(Cl)c1 (stereo not shown) [Example 15E] | 1 | 0.5 |  |  |
| CCN(CC(=NOC)C(CCN1CCC(N2CCCC(CC(=O)NC)C2=O)CC1)c1ccc(Cl)c(Cl)c1)C(=O)c1cc(Cl)cc(Cl)c1 (stereo not shown) [Example 28B] | 1 | 0.8 |  |  |
| CN(CC(=NO)C(CCN1CCC(N2CCCCC2=O)CC1)c1ccc(Cl)c(Cl)c1)C(=O)c1cc(Cl)cc(Cl)c1 (stereo not shown) [Example 17A] | 3 | 0.5 |  |  |
| CO/N=C(\CN(C)C(=O)c1cc(C(F)(F)F)cc(C(F)(F)F)c1)C(CCN1CCC(O)(c2ccccc2)CC1)c1ccc(Cl)c(Cl)c1 (stereo not shown) [Example 11] |  |  | 9.2 | 3.6 |
| CONC(=O)CON=C(CN(C)C(=O)c1cc(C)cc(C)c1)C(CCN1CCC(N2CCCC(CC(=O)N(C)C)C2=O)CC1)c1ccc(Cl)c(Cl)c1 (stereo not shown) [Example 19E] | 1.8 | 0.6 |  |  |
| CNC(=O)CC1CCCN(C2CCN(CCC(C(CN(C)C(=O)c3cc(Cl)cc(Cl)c3)=NOCC#N)c3ccc(Cl)c(Cl)c3)CC2)C1=O (stereo not shown) [Example 15B] | 0.8 | 1.7 |  |  |
| Cc1cc(C(=O)N(C)CC(=NOCC(N)=NO)C(CCN2CCC(O)(c3ccccc3)CC2)c2ccc(Cl)c(Cl)c2)cc(Cl)n1 (stereo not shown) [Example 31] | 1.8 | 0.4 |  |  |
| COc1cc(C(=O)N(C)CC(=NOCC(N)=NO)C(CCN2CCC(O)(c3ccccc3)CC2)c2ccc(Cl)c(Cl)c2)cc(OC)c1OC (stereo not shown) [Example 23] | 0.5 | 0.8 |  |  |
| CON=C(CN(C)C(=O)c1cc(Cl)cc(Cl)c1)[C@H](CCN1CCC(N2CCC[C@H](CC(=O)O)C2=O)CC1)c1ccc(Cl)c(Cl)c1 [Example 13E] | 0.6 | 0.4 |  |  |
| CON=C(CN(C)C(=O)c1cc(Cl)cc(Cl)c1)[C@H](CC[N+]1([O-])CCC(N2CCCCC2=O)CC1)c1ccc(Cl)c(Cl)c1 (stereo partly shown) [Example 13G] | 0.4 | 1.5 |  |  |
| CON=C(CN(C)C(=O)c1cc(Cl)cc(Cl)c1)C(CCN1CCC(N2CCCC(CC(=O)N3CCCC3)C2=O)CC1)c1ccc(Cl)c(Cl)c1 (stereo not shown) [Example 12F] | 0.8 | 0.6 |  |  |
| CON=C(CN(C)C(=O)c1cc(Cl)cc(Cl)c1)C(CCN1CCC(c2ccccc2[S+](C)[O-])CC1)c1ccc(Cl)c(Cl)c1 (stereo not shown) [Example 36] | 1 | 0.8 |  |  |
| CN(CC(=NOCCCS(=O)(=O)O)C(CCN1CCC(N2CCCCC2=O)CC1)c1ccc(Cl)c(Cl)c1)C(=O)c1cc(Cl)cc(Cl)c1 (stereo not shown) [Example 17K] | 2.7 | 3.3 |  |  |
| CNC(=O)CC1CCCN(C2CCN(CCC(C(CN(C)C(=O)c3cc(Cl)cc(Cl)c3)=NOCC(N)=NOC)c3ccc(Cl)c(Cl)c3)CC2)C1=O (stereo not shown) [Example 15M] | 0.3 | 0.2 |  |  |
